Results as given in publication PMC9856044 (Biomolecules, 2023).
Structures can show the parent of a compound that is named as a salt.

Tests used:
Tel22 G-quadruplex [1] = assay: Thermal melting of Tel22 in sodium cacodylate buffer; assay type: binding, human; settings: Tel22, r = 1.0, sodium cacodylate buffer, pH = 7.0, I = 0.1 mol dm^−3; error ± 0.5 °C
Experimental: (§1) Thermal melting curves for DNA, RNA and their complexes with studied compounds were determined as previously described by following the absorption change at 260 nm as a function of temperature. The absorbance of the ligands was subtracted from every curve and the absorbance scale was normalized. Tm values are the midpoints of the transition curves determined from the maximum of the first derivative and checked graphically by the tangent method. The ∆Tm values were calculated by subtracting Tm of the free nucleic acid from Tm of the complex. Every ∆Tm value here reported was the average of two measurements. The error in ∆Tm is ±0.5 °C. 5′-AGGG(TTAGGG)3–3′(Tel22) was obtained from IDT (Integrated DNA Technologies, Coralville, IA, USA). Tel22 was dissolved in 0.1 M either in sodium cacodylate or potassium phosphate buffer. The starting Tel22 oligonucleotide solution was first heated up to 95 °C for 10 min, then slowly cooled to 10 °C at the cooling rate of 1 °C/min to allow DNA oligonucleotide to adopt a G-quadruplex structure. The G-quadruplex structure was confirmed by thermal melting and CD spectra. The concentration of G quadruplex was expressed in terms of oligonucleotide structure. In fluorimetric titrations, aliquots of Tel 22 solution were added to the solution of ligands (c ~ 2 × 10^−7 M, in SI).

[2] = Solubility and aggregation (UV/Vis characterization); assay type: physicochemical; settings: for Aggregation in aqueous buffer: sodium cacodylate buffer, I = 0.05 mol dm^−3, pH = 7.0, UV/Vis
Experimental: The UV/vis spectra were recorded on a Varian Cary 100 Bio spectrophotometer (Agilent, Santa Clara, CA, USA), CD spectra on JASCO J815 spectrophotometer (ABL&E Handels GmbH, Wien, Austria) and fluorescence spectra on a Varian Cary Eclipse spectrophotometer (Agilent, Santa Clara, CA, USA) at 25 °C using appropriate 1 cm path quartz cuvettes.
Studied compounds, 1–6 were soluble (c = 8 × 10^−4 mol dm^−3) in DMSO. […] Therefore, the stock solution of 2 was prepared fresh before use. The experiments were done in aqueous buffer (sodium cacodylate buffer, I = 0.05 mol dm^−3; pH = 7.0).
However, the shape of UV/Vis spectra of cyanine 2 changed with increasing concentration (calibration experiment in Figure S2 in SI). In addition to the dominant maximum at 432 nm (which most likely corresponds to the monomer form of the dye), the absorption band at 413 nm becomes more intense (Figure S2 in SI). Presumably, it corresponds to the aggregated form (H-aggregate). Based on the existence of an absorption band at 432 nm, only the monomer dye form is visible at high temperature (95 °C) (Figure S8b in SI). However, after cooling the solution to 25 °C, an additional band appears at 413 nm, which corresponds to the aggregated dye form.

[3] = test system: Tel22 (DNA, G4) AGGGTTAGGGTTAGGGTTAGGG; assay: UV thermal melting, 260 nm; settings: pH 7.0, Tel22 2 µM, r = 1.0 (compound 2 µM)
[4] = target: Tel22 (5′-AGGG(TTAGGG)3–3′) G-quadruplex; assay: Fluorimetric titration with Tel22 in sodium cacodylate buffer (Na+ solution); assay type: binding, human
Experimental: (§2) Materials. Polynucleotides were purchased as noted: poly A–poly U, calf thymus ctDNA, poly(dAdT)2 and poly(dGdC)2 (Sigma-Aldrich, St. Louis, MI, USA). Polynucleotides were dissolved in Na-cacodylate buffer, I = 0.05 mol dm^−3, pH = 7.0. The calf thymus ctDNA was additionally sonicated and filtered through a […]. Polynucleotide concentration was determined spectroscopically as the concentration of phosphates. Spectrophotometric titrations were performed at pH = 7.0 (I = 0.05 mol dm^−3, sodium cacodylate buffer) by adding aliquots of polynucleotide solution into the solution of the studied compound for fluorimetric experiments and CD experiments were done by adding aliquots of the compound stock solution into the solution of a polynucleotide. In fluorimetric experiments, an excitation wavelength of λexc = 425, 431, 423, 427, 406 and 407 nm, respectively, was used to avoid the inner filter effect caused due to increasing absorbance of the polynucleotide. Emission was collected in the range λem = 400–700 nm. Values for Ka obtained by processing titration data using the Scatchard equation [27], all have satisfactory correlation coefficients (≥0.98).
as §1
(§3) Binding constants (log Ka) and stoichiometry of complexes were calculated from the fluorimetric data using non-linear least-square program SPECFIT [46], in the concentration range that corresponded to 20–80% complex formed.

Tel22 G-quadruplex [5] = assay: Thermal melting of Tel22 in potassium phosphate buffer; assay type: binding, human; settings: Tel22, r = 1.0, potassium phosphate buffer, pH = 7.0, I = 0.1 mol dm^−3; error ±0.5 °C
Experimental: as §1

HeLa cells = assay: MTT cytotoxicity assay, HeLa; assay type: cell-based; settings: Homo sapiens, 72 h incubation, ± SD
Experimental: (§4) Human cervical carcinoma HeLa (GIBCO BRL, Invitrogen, Waltham, MA, USA), human melanoma MDA-MB-435S and human ovarian adenocarcinoma SK-OV-3 (ATCC-LGC Standards GmbH, Wesel, Germany) cell lines were purchased from indicated cell culture banks. Normal human skin fibroblasts were isolated from the upper arm of a donor at the Neurochemical Laboratory, Department of Chemistry and Biochemistry, School of Medicine, University of Zagreb. HeLa, MDA-MB-435S and fibroblasts were grown in Dulbecco’s Modified Eagle’s Medium (DMEM; Sigma-Aldrich, St. Louis, MI, USA) while the SK-OV-3 cell line was grown in McCoy’s 5A medium (Capricorn Scientific, Ebsdorfergrund, Germany). All media were supplemented with 10% fetal bovine serum (FBS; Sigma-Aldrich) and 50 I.U./mL penicillin and 50 μg/mL streptomycin. Cells were cultured in a humidified atmosphere of 5% CO2 at 37 °C and were sub-cultured every 3–4 days. HeLa, MDA-MB-435S, SK-OV-3 cells and fibroblasts were seeded in 96 well plates. Twenty-four hours later the cells were treated, in quadruplicate, with different concentrations of compounds (dissolved in DMSO, kept at 4 °C and protected from light). Following 72 h of incubation at 37 °C, the medium was aspired and modified 3-(4,5-dimethylthiazol-2-yl)-2,5-diphenyltetrazolium bromide (MTT) assay was used to determine the cytotoxic effect of the tested compounds. Three hours later, formazan crystals were dissolved in DMSO (0.17 mL/well), the plates were mechanically agitated for 20 min and the optical density at 600 nm was determined on a microtiter plate reader (Awareness Technology Inc., Palm City, FL, USA). The experiments were repeated three times.

SK-OV-3 cells = assay: MTT cytotoxicity assay, SK-OV-3; assay type: cell-based; settings: Homo sapiens, SK-OV-3, 72 h incubation, ± SD
Experimental: as §4

Fibroblasts = assay: MTT cytotoxicity assay, normal human skin fibroblasts; assay type: cell-based; settings: Fibroblast, 72 h incubation, ± SD
Experimental: as §4

MDA-MB-435S cells = assay: MTT cytotoxicity assay, MDA-MB-435S; assay type: cell-based; settings: Homo sapiens, 72 h incubation, ± SD
Experimental: as §4

[6] = target: Tel22 (5′-AGGG(TTAGGG)3–3′) G-quadruplex; assay: Fluorimetric titration with Tel22 in potassium phosphate buffer (K+ solution); assay type: binding, human; settings: Tel22, potassium phosphate buffer, pH = 7.0, I = 0.1 mol dm^−3; SPECFIT fit
Experimental: as §2, §1, §3

[7] = test system: poly A–poly U (AU-RNA) (RNA, polymer) A/U; assay: CD titration (ICD); settings: Na+ (sodium cacodylate, I = 0.05 M), pH 7.0, 25 °C
[8] = test system: poly(dAdT)2 (AT-DNA) (DNA, polymer) AT; assay: CD titration (ICD); settings: Na+ (sodium cacodylate, I = 0.05 M), pH 7.0, 25 °C
[9] = test system: poly(dGdC)2 (GC-DNA) (DNA, polymer) GC; assay: CD titration (ICD); settings: Na+ (sodium cacodylate, I = 0.05 M), pH 7.0, 25 °C
[10] = test system: Tel22 (DNA, G4) AGGGTTAGGGTTAGGGTTAGGG; assay: fluorescence titration (SPECFIT); settings: pH 7.0, 25 °C; for logKa: K+ (potassium phosphate, I = 0.1 M); for logKa1: Na+ (sodium cacodylate, I = 0.1 M)
[11] = test system: poly(dAdT)2 (AT-DNA) (DNA, polymer) AT; assay: UV thermal melting, 260 nm; settings: Na+ (sodium cacodylate, I = 0.05 M); pH 7.0; r [compound]/[nucleotide phosphate] = 0.1; per base
[12] = Na+ (sodium cacodylate, I = 0.1 M)
[13] = K+ (potassium phosphate, I = 0.1 M)

Structure (SMILES): COc1ccc2c(c1)SC(=Cc1[se]c3ccccc3[n+]1C)N2CCCS(=O)(=O)[O-] [Compound 2, 3-(6-methoxy-2-((3-methylbenzo[d][1,3]selenazol-3-ium-2-yl)methylene)benzo[d]thiazol-3(2H)-yl)propane-1-sulfonate]
- ∆Tm (Tel22 G-quadruplex [1]): 0 °C
- melting point: > 300 °C
- Aggregation in DMSO stock solution ([2]; DMSO, after several weeks): prone to aggregation
- Aggregation in aqueous buffer [2]: mixture of monomer and aggregated form
- ∆Tm [3, 12]: 0 °C

Structure (SMILES): CN1/C(=C/c2[se]c3ccccc3[n+]2C)Sc2cc(Cl)ccc21 [Compound 4, 2-((6-chloro-3-methylbenzo[d]thiazol-2(3H)-ylidene)methyl)-3-methylbenzo[d][1,3]selenazol-3-ium methosulphate]
- ∆Tm (Tel22 G-quadruplex [1]): 2.1 °C
- logKa1 (L + G ⇆ LG) ([4]; Tel22, sodium cacodylate buffer, pH = 7.0, I = 0.1 mol dm^−3, SPECFIT fit of fluorescence titration): 6.19 ± 0.01
- Selectivity for G-quadruplex over duplex DNA ([4]; binding affinities Tel22 vs duplex DNA, in both the Na+ and K+ solutions): 100 fold
- ∆Tm (Tel22 G-quadruplex [5]): 3.2 °C
- IC50 (HeLa cells): 793 ± 157 nM
- Aggregation in aqueous buffer [2]: do not form aggregates
- IC50 (SK-OV-3 cells): 1320 ± 125 nM
- IC50 (Fibroblasts): > 2500 nM
- IC50 (MDA-MB-435S cells): 614 ± 77.6 nM
- logKa (L + G ⇆ LG, 1:1 complex) [6]: 7.78 ± 0.18

Structure (SMILES): C[n+]1c(/C=C2\Sc3ccccc3N2CCS)[se]c2ccccc21 (as salt: sulphate) [Compound 6, 2-((3-(2-mercaptoethyl)benzo[d]thiazol-2(3H)-ylidene)methyl)-3-methylbenzo[d][1,3]selenazol-3-ium methosulphate]
- melting point: 245 to 247 °C

Structure (SMILES): CN1/C(=C/c2[se]c3ccccc3[n+]2C)Sc2ccccc21 (as salt: sulphate) [Compound 3, 3-methyl-2-((3-methylbenzo[d]thiazol-2(3H)-ylidene)methyl)benzo[d][1,3]selenazol-3-ium methosulphate]
- melting point: > 300 °C

Structure (SMILES): C[n+]1c(C=C2Sc3ccccc3N2CCS)[se]c2ccccc21
- binding ([7]; bisignate ICD): yes
- binding ([8]; bisignate ICD +440/−400 nm): yes
- ∆Tm [3, 13]: 6.9 °C
- ∆Tm [3, 12]: 2.0 °C
- binding ([9]; bisignate ICD +440/−400 nm): yes

Structure (SMILES): CN1C(=Cc2[se]c3ccccc3[n+]2C)Sc2ccccc21
- logKa [10]: 6.88 ± 0.05
- logKa1 ([10]; site 1 of 2): 7.26 ± 0.41
- binding ([7]; bisignate ICD +405/−385 nm): yes
- binding ([8]; positive ICD at 440 nm): yes
- ∆Tm [3, 13]: 0.5 °C
- ∆Tm [3, 12]: 0.5 °C

Structure (SMILES): CN1C(=Cc2[se]c3ccccc3[n+]2C)Sc2cc(Cl)ccc21
- logKa [10]: 7.78 ± 0.18
- logKa1 [10]: 6.19 ± 0.01
- binding ([7]; bisignate ICD +405/−385 nm): yes
- binding ([8]; positive ICD at 440 nm): yes
- ∆Tm [3, 13]: 3.2 °C
- ∆Tm [3, 12]: 2.1 °C
- binding ([9]; bisignate ICD +440/−410 nm): yes

Structure (SMILES): C[n+]1c(C=C2Sc3ccccc3N2CCCS)[se]c2ccccc21
- ∆Tm [11]: 4 °C
- ∆Tm [3, 13]: 5.1 °C
- ∆Tm [3, 12]: 2.1 °C

Structure (SMILES): CN1/C(=C/c2[se]c3ccccc3[n+]2C)Sc2cc(Cl)ccc21 (as salt: sulphate) [Compound 4, 2-((6-chloro-3-methylbenzo[d]thiazol-2(3H)-ylidene)methyl)-3-methylbenzo[d][1,3]selenazol-3-ium methosulphate]
- melting point: > 300 °C

Structure (SMILES): C[n+]1c(/C=C2\Sc3ccccc3N2CCCS)[se]c2ccccc21 (as salt: sulphate) [Compound 5, 2-((3-(3-mercaptopropyl)benzo[d]thiazol-2(3H)-ylidene)methyl)-3-methylbenzo[d][1,3]selenazol-3-ium methosulphate]
- melting point: 233 to 236 °C
